Reference: patent US20170328922A1, “METHODS AND PRODUCTS FOR LABELLING LIPIDS” (UNIVERSITY OF SOUTH AUSTRALIA, priority 2014, published 2017)

Experiments:
[1] = Rhenium molecular probe-lipid overlay (dot blot); format: binding; parameters: key to interaction with Sphingomyline (dot blot): ✓ indicates a positive interaction; x indicates no interaction
Protocol: (§1) The experimental protocol probe-lipid overlay was as follows: 50 μM of each lipids was loaded on to PVDF membranes (Perkin Elmer, USA), which were then incubated with molecular probes. PhenCyano and PhenPyridyl were assessed against eleven lipids including; sphingomyelin (Cat # S0756, Sigma Aldrich, USA), sphingosine (Cat # S7049; Sigma Aldrich, USA), L-phosphatidylethanolamine (Cat # P7943, Sigma Aldrich, USA), monosialodanglioside (GM1; Cat # G7641, Sigma Aldrich, USA), oleoly-L-?-lysophosphatidic acid (Cat # L7260, Sigma Aldrich, USA), palmitic acid (Cat # P5917, Sigma Aldrich, USA), sphingomyelin (Cat # S0756, Sigma Aldrich, USA), sphingosine (Cat # S7049; Sigma Aldrich, USA), L-?-phosphatidylethanolamine (Cat # P7943, Sigma Aldrich, USA), monosialodanglioside (GM1; Cat # G7641, Sigma Aldrich, USA), progesterone (Cat #102722, MP Biomedical, USA), ceramide (Cat # C2137; Sigma Aldrich, USA), triacylglycerol mix C2-C10 (Cat #17810, Sigma Aldrich, USA) and cholesteryl acetate (Cat #151114; Sigma Aldrich, USA).
(§2) All other molecular probes were assessed against a panel of six lipids including; sphingomyelin (Cat # S0756, Sigma Aldrich, USA), sphingosine (Cat # S7049; Sigma Aldrich, USA), L-?-phosphatidylethanolamine (Cat # P7943, Sigma Aldrich, USA), monosialodanglioside (GM1; Cat # G7641, Sigma Aldrich, USA), sphingomyelin (Cat # S0756, Sigma Aldrich, USA), sphingosine (Cat # S7049; Sigma Aldrich, USA), L-?-phosphatidylethanolamine (Cat # P7943, Sigma Aldrich, USA), monosialodanglioside (GM1; Cat # G7641, Sigma Aldrich, USA) and triacylglycerol mix C2-C10 (Cat #17810, Sigma Aldrich, USA).
(§3) Lipids were dissolved in ethanol, methanol or isopropanol for loading depending on solubility. Following lipid loading, membranes were left to dry for 20-30 minutes, then they were washed for 10 minutes in cold 10% ethanol, before they were incubated with 10 μM solution of each Rhenium molecular probe in cold 10% ethanol for one hour. Membranes were than washed four times for 10 minutes in cold 10% ethanol prior to imaging. Imaging was performed on an Image Quant Las 4000 (GE, Sweden) luminescent image analyser, with the Rhenium molecular probe being detected by excitation at 460 nm using an epi-blue light source, and detected using an 575 nm ethidium bromide filter.

[2] = Rhenium molecular probe-lipid overlay (dot blot); format: binding; parameters: key to interaction with Sphingosine (dot blot): ✓ indicates a positive interaction; x indicates no interaction
Protocol: as §1, §2, §3

[3] = Rhenium molecular probe-lipid overlay (dot blot); format: binding; parameters: key to interaction with Lysophosphatidic acid (dot blot): ✓ indicates a positive interaction; x indicates no interaction
Protocol: as §1, §3

[4] = Rhenium molecular probe-lipid overlay (dot blot); format: binding; conditions: FIG. 7
Protocol: as §1, §3

[5] = Rhenium probe-lipid overlay, Example 5; format: binding
Protocol: To determine the binding properties of tricarbonyl-(4-cyanophenyltretrazolato)-phenanthroline-rhenium (I) (Rhenium probe) to various lipids, Rhenium probe-lipid overlay was performed using either lipids spotted onto PDVF membranes (Perkin Elmer, USA) or lipid MicroStrips (Echelon Biosciences Inc., Salt Lake City, Utah). The membranes contained at least 100 pmoles of each lipid in individual spots (supplementary table 1) or 10 μL (each in PBS) of 10% (v/v) glycerol, 1% (v/v) CHAPS, 1% (w/v) SDS, 1% (v/v) Tween20, Ecydsone (10 μg/100 μL), cholesterol (10 μg/100 μL), progesterone (10 μg/100 μL), PBS, or 1% (v/v) ethanol; and were incubated with 0.5 mM of Rhenium probe in 1% (w/v) BSA/PBS for 40 minutes and then washed four times for 10 minutes in PBS. Imaging was performed on an Image Quant Las 4000 (GE, Sweden) luminescent image analyser, with the Rhenium probe being detected by excitation at 460 nm using an epi-blue light source, and detected using an 605 nm ethidium bromide filter.

[6] = test system: Drosophila fat body cells; assay: Live tissue staining with rhenium molecular probes (Examples 10, 13); format: cell-based
Protocol: Probes were dissolved in DMSO to obtain a stock solution with a concentration of 10 mM. Stock solutions were stored at room temperature in a dark place. Working solutions were prepared only at the time of use as the probe has reduced solubility in aqueous solutions. A Working solution was a dilution 1/1000 to 1/500 of the stock in DMSO to PBS or cell medium, and as such the percentage of DMSO used in actual cell experiments was less than 1%.
For tissues, the tissues were isolated in PBS (or other physiological media) and mounted on a coverslip. For cells, these were grown as per normal practice on coverslips.
The media was removed media and replaced with 10-20 μM solution of molecular probes in PBS (or appropriate physiological media/cell media) at a dilution of stock solution from 1/1000-1/500, for 15-30 minutes at physiologically appropriate temperature (37° C. for cell culture or 25° C. for insect larvae). […] If foetal calf serum is necessary for cell health, an increased incubation time may be necessary to obtain adequate staining.
The samples were washed for one minute in PBS. If co-staining was performed, the samples were washed in PBS for 30 seconds, before incubating with counterstain.
Tissues were mounted in optical coupling gel, such as carbomer-940 (Snowdrift farm, Tucson, USA) based gel to prevent dehydration prior to imaging and maintain tissue integrate (Rothstein, E. C., Nauman, M., Chesnick S., Balaban R. S., 2006, Multi-photon excitation microscopy in intact animals Journal of Microscopy 222, 58, 64). For cells, the coverslip was mounted in PBS for immediate imaging.
Samples were imaged immediately following staining.
Rhenium molecular probes were? excited at 800-830 nm using a two-photon pulse laser or 405 steady state laser and detection in the range of 490-670 nm, with an emission maxima at around 570.
Micrographs of 3T3 L1, 453 cells and CHOK1 cells and Drosophila fat body tissue stained with rhenium molecular probes, PhenCyan top, PhenPyridyl bottom are shown in FIG. 10. […] Left: confocal images; Right: fluorescence microscopy images. […]

[7] = 10 μM probe, 50 μM lipid on PVDF membrane
[8] = 0.5 mM probe in 1% BSA/PBS, FIG. 6

Structure (SMILES): N#Cc1ccc(-c2nn[n]([Re](=[C]=O)(=[C]=O)=[C]=O)n2)cc1.c1cnc2c(c1)ccc1cccnc12 [PhenCyano, Triscarbonyl phenanthroline (4-cyanophenyltetrazolato)Rhenium(I)]
- interaction with Sphingomyline (dot blot) [1, 7]: ✓
- affinity towards sphingomyelin, in words ([1]; FIG. 7 / FIG. 8): some affinity
- interaction with Sphingosine (dot blot) [2, 7]: ✓
- affinity towards sphingosine, in words ([2]; FIG. 7 / FIG. 8): some affinity
- interaction with Lysophosphatidic acid (dot blot) [3, 7]: ✓
- affinity towards lysophosphatidic acid, in words ([3]; FIG. 7): some affinity
- interaction with cholesterol ester (cholesteryl acetate), in words [4]: no interaction detected
- reactivity with long chain fatty acids ([5]; 0.5 mM probe in 1% BSA/PBS): did not react
- reactivity with neutral lipids ([5]; 0.5 mM probe in 1% BSA/PBS): did not react
- interaction with cholesterol [5, 8]: interacted
- interaction with ecdysone [5, 8]: interacted
- interaction with progesterone [5, 8]: interacted
- reactivity with CHAPS [5, 8]: high level of reactivity
- reactivity with deoxycholate [5, 8]: high level of reactivity
- reactivity with SDS ([5]; auto-reactivity of SDS alone at 575-605 nm on membrane): some residual background reactivity
- reactivity with Tween® 20 ([5]; auto-reactivity of Tween 20 alone at 575-605 nm on membrane): some residual background reactivity
- emission spectral profile in the acidic compartment versus lipid droplet ([6]; +2 h PF, following autophagic inducement): blue shift and an increase in emission intensity
- staining pattern in Drosophila fat body cells ([6]; live samples, 10-20 μM probe): distribution consistent with lipid droplet staining
